Measured values published in paper PMC12723449, “From Pharmacophore to Warhead: NAD^+‐Targeting Triazoles as Mechanism‐Based Sirtuin Inhibitors” (Angewandte Chemie (International Ed. in English), 2025).
pKi: −log10 of the molar value.

Legend:
α‐tubulin = test system: α‐tubulin; parameters: method as in PMID 35441145; details: cited from earlier work
SIRT2 [1] = target: T1, SIRT2 (Homo sapiens, UniProt Q8IXJ6); experiment: Jump-dilution assay; assay type: biochemical
T1 construct: For assay experiments, strep-tagged human SIRT1134−747 and SIRT256-356 were expressed and purified as previously; Strep-tag; made in house; host or cells: E. coli BL21 Star (DE3)
T1 sequence (Q8IXJ6 56-356 limits assumed): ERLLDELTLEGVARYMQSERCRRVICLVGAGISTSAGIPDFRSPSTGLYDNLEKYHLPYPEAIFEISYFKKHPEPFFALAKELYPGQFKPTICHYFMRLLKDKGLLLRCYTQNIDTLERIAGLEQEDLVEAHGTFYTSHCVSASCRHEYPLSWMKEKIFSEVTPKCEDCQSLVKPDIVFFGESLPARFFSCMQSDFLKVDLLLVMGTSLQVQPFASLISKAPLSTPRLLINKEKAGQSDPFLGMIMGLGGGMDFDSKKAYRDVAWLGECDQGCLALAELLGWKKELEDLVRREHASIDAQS

SIRT2 [2] = target: T1, SIRT2; experiment: Kinetic analysis via continuous enzyme demyristoylation inhibition assay; assay type: biochemical; details: myristoylated substrate, two-step inhibition model; read-out: K I app
Protocol: solution was diluted 100-fold to a total volume of 40 µL with substrate (final concentration of 40 nM), NAD+ (final concentration of 500 µM) and DMSO (final concentration of 5 % (v/v)) and transferred to a black 384-well microplate (Optiplate 384 F, PerkinElmer). For NAD+ preincubation, 0.1 µL of inhibitor solution (40× IC50, […] after jump dilution), 0.1 µL of SIRT2 (400 nM, final concentration of 1 nM after jump dilution) and 0.2 µL of NAD+ ([…] concentration of 500 µM after jump dilution) were preincubated for 30 min. […] The change in fluorescence was monitored with a microplate reader (λEx = 485 nm, λEm = 530-10 nm, BMG POLARstar Optima, BMG Labtech, Germany) every 30 s for 20 min. […] Reaction rates were obtained from the slope of the fluorescence signal over time and converted to product concentration using calibration curves, assuming equal fluorescence intensities for substrate and product, as […]
Ft = time-dependent signal resulting from product formation (in µM, calculated from AU values), F0 = Y-intercept = background signal at reaction initiation (in µM, calculated from AU values), vi = initial product formation velocity (in µM/min), vs = final/steady-state product formation velocity (in µM/min), t = incubation time after enzyme addition (in min), kobs = observed rate of time-dependent inhibition from initial vi to final vs (in min-1). […]

SIRT2 enzymatic activity after jump dilution (SIRT2 [1]; preincubation of SIRT2 with compound and NAD+ (30 min), 1:100 dilution to 4 nM) [%] | SIRT2 enzymatic activity after jump dilution (SIRT2 [1]; without NAD+ preincubation, 1:100 dilution) [%] | pKi (SIRT2 [2]) | Compound | α-tubulin hyperacetylation (α‐tubulin)
– | – | – | COCCn1cc(COc2cccc(Cc3cnc(NC(=O)CSc4nc(C)cc(C)n4)s3)c2)nn1 [Compound 1, reference compound] | pronounced α‐tubulin hyperacetylation
13 | 72 | 4.61 | CCCCCCCCCCCCc1cn(CCCC[C@H](NC(=O)[C@H](CCCCN)NC(=O)[C@@H]2CCCN2C(=O)[C@H](CC(C)C)NC(=O)[C@H](C)NC(=O)[C@H](CCC(=O)O)NC(C)=O)C(=O)N[C@H](C(=O)NCC(=O)NCC(N)=O)[C@@H](C)O)nn1 [Compound 6] | –
